In ChEMBL document CHEMBL3714725, “Diaminopyrimidines as P2X3 and P2X2/3 modulators” (2010):
Activity calls are given as the source filed them. The rule behind the calls is not given here.

Target: T1, P2X purinoceptor 3 (Rattus norvegicus) (UniProt P49654)
T1 sequence (whole entry): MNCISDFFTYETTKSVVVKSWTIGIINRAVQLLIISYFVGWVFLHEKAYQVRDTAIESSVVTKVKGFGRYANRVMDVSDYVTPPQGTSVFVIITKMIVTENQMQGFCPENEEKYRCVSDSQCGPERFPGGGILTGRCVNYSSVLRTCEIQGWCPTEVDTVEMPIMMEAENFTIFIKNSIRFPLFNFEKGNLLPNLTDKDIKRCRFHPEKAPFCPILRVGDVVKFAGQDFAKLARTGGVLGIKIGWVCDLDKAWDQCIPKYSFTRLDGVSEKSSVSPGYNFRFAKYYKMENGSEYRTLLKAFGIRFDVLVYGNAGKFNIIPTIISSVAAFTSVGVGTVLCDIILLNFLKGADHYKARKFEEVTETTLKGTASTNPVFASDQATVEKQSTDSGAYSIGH
Assay: Antagonist activity against rat P2X3 receptor expressed in CHOK1 cells assessed as inhibition of alpha,beta-meATP-induced calcium response incubated for 20 mins by Fluo-3AM dye based FLIPR assay
Assay type: functional, cell-based
Details: CHO-K1

| inhibition | SMILES |
| --- | --- |
| Active | COc1cc(C(C)C)c(Oc2cnc(NC(=O)C3CCCN3C(C)=O)nc2N)cc1I (centres undefined) |
| Active | COc1cc(C(C)C)c(Oc2cnc(NC(=O)N3CCOCC3)nc2NC(=O)N2CCOCC2)cc1I |
| Active | COc1cc(C(C)C)c(Oc2cnc(NC(=O)C(C)(C)O)nc2N)cc1I |
| Active | COc1cc(C(C)C)c(Oc2cnc(NC(=O)C3CCN(C)CC3)nc2N)cc1I |
| Active | C#Cc1cc(Oc2cnc(NC(=O)CCC)nc2N)c(C(C)C)cc1OC |
| Active | COc1cc(C(C)C)c(Oc2cnc(NC(=O)N3CCOCC3)nc2N)cc1I |
| Active | COc1cc(C(C)C)c(Oc2cnc(NC(=O)c3ccncc3)nc2N)cc1I |
| Active | COc1cc(C(C)C)c(Oc2cnc(NC(=O)N3CCN(C)CC3)nc2N)cc1I |
| Active | C#Cc1cc(Oc2cnc(NC(=O)c3ccccc3)nc2N)c(C(C)C)cc1OC |
| Active | COc1cc(C(C)C)c(Oc2cnc(NC(C)=O)nc2NC(C)=O)cc1I |
| Active | COc1cc(C(C)C)c(Oc2cnc(NC(=O)Cc3cccnc3)nc2N)cc1I |
| Active | CCCCC(=O)Nc1ncc(Oc2cc(I)c(OC)cc2C(C)C)c(N)n1 |
| Active | COc1cc(C(C)C)c(Oc2cnc(N)nc2NC(=O)C2CCOCC2)cc1I |
| Active | CC[C@@H](C)[C@@H](N)C(=O)Nc1ncc(Oc2cc(I)c(OC)cc2C(C)C)c(N)n1 |
| Active | COc1cc(C(C)C)c(Oc2cnc(NC(=O)c3ccccn3)nc2N)cc1I |
| Active | COc1cc(C(C)C)c(Oc2cnc(NC(=O)c3cnc(C)cn3)nc2N)cc1I |
| Active | COc1cc(C(C)C)c(Oc2cnc(NC(=O)OCC(C)C)nc2N)cc1I |
| Active | CCC(C)C(=O)Nc1ncc(Oc2cc(I)c(OC)cc2C(C)C)c(N)n1 (centres undefined) |
| Active | COc1cc(C(C)C)c(Oc2cnc(N)nc2NC(=O)c2ccccc2)cc1I |
| Active | CCCC(=O)Nc1ncc(Oc2cc(I)c(OC)cc2C(C)C)c(NC(=O)CCC)n1 |
| Active | COCCOCC(=O)Nc1ncc(Oc2cc(I)c(OC)cc2C(C)C)c(N)n1 |
| Active | COc1cc(C(C)C)c(Oc2cnc(N)nc2NC(=O)c2cnc(C)cn2)cc1I |
| Active | COc1cc(C(C)C)c(Oc2cnc(NC(=O)CC(C)C)nc2N)cc1I |
| Active | CCOC(=O)Nc1ncc(Oc2cc(I)c(OC)cc2C(C)C)c(N)n1 |

| inhibition | SMILES |
| --- | --- |
| Active | COc1cc(C(C)C)c(Oc2cnc(NC(=O)C(C)(C)OC(C)=O)nc2N)cc1I |
| Active | COc1cc(C(C)C)c(Oc2cnc(NC(=O)c3cnccn3)nc2N)cc1I |
| Active | COc1cc(C(C)C)c(Oc2cnc(NC(=O)N3CCC(O)CC3)nc2N)cc1I |
| Active | COc1cc(C(C)C)c(Oc2cnc(NC(=O)CCC(=O)O)nc2N)cc1I |
| Active | CCCC(=O)Nc1ncc(Oc2cc(I)c(OC)cc2C(C)C)c(N)n1 |
| Active | COc1cc(C(C)C)c(Oc2cnc(NC(=O)CO)nc2N)cc1I |
| Active | COc1cc(C(C)C)c(Oc2cnc(N)nc2NC(=O)c2cccn2C)cc1I |
| Active | COc1cc(C(C)C)c(Oc2cnc(NC(=O)[C@H](N)[C@H](C)C(C)C)nc2N)cc1I |
| Active | COc1cc(C(C)C)c(Oc2cnc(NC(=O)C(N)C(C)C)nc2N)cc1I (centres undefined) |
| Active | COc1cc(C(C)C)c(Oc2cnc(NC(=O)C(C)C)nc2NC(=O)C(C)C)cc1I |
| Active | COc1cc(C(C)C)c(Oc2cnc(N)nc2NC(=O)c2ccco2)cc1I |
| Active | COc1cc(C(C)C)c(Oc2cnc(NC(=O)N3CCC(C)CC3)nc2N)cc1I |
| Active | CCCCC(=O)Nc1ncc(Oc2cc(I)c(OC)cc2C(C)C)c(NC(=O)CCCC)n1 |
| Active | C#Cc1cc(Oc2cnc(N)nc2NC(=O)CC(C)(C)C)c(C(C)C)cc1OC |
| Active | CCC(C)(C)C(=O)Nc1ncc(Oc2cc(I)c(OC)cc2C(C)C)c(N)n1 |
| Active | COc1cc(C(C)C)c(Oc2cnc(NC(=O)c3ccco3)nc2N)cc1I |
| Active | COc1cc(C(C)C)c(Oc2cnc(N)nc2NC(=O)c2cnccn2)cc1I |
| Active | COc1cc(C(C)C)c(Oc2cnc(NC(=O)N3CCC(N(C)C)CC3)nc2N)cc1I |
| Active | COc1cc(C(C)C)c(Oc2cnc(NC(=O)c3ccnnc3)nc2N)cc1I |
| Active | C#Cc1cc(Oc2cnc(NC(=O)CC(C)(C)C)nc2N)c(C(C)C)cc1OC |
| Active | COc1cc(C(C)C)c(Oc2cnc(NC(=O)[C@@H]3CCCO3)nc2N)cc1I |
| Active | C#Cc1cc(Oc2cnc(NC(=O)C(C)(C)C)nc2NC(=O)C(C)(C)C)c(C(C)C)cc1OC |
| Active | C#Cc1cc(Oc2cnc(N)nc2NC(=O)CCC)c(C(C)C)cc1OC |
| Active | COc1cc(C(C)C)c(Oc2cnc(NC(=O)c3cnc[nH]3)nc2N)cc1I |

| inhibition | SMILES |
| --- | --- |
| Active | C#Cc1cc(Oc2cnc(NC(C)=O)nc2N)c(C(C)C)cc1OC |
| Active | COc1cc(C(C)C)c(Oc2cnc(NC(=O)COC(C)=O)nc2N)cc1I |
| Active | COc1cc(C(C)C)c(Oc2cnc(N)nc2NC(=O)C2CCN(C(C)=O)CC2)cc1I |
| Active | COc1cc(C(C)C)c(Oc2cnc(NC(=O)COC(C)=O)nc2NC(=O)COC(C)=O)cc1I |
| Active | COc1cc(C(C)C)c(Oc2cnc(N)nc2NC(=O)[C@@H]2CCCO2)cc1I |
| Active | COCC(=O)Nc1ncc(Oc2cc(I)c(OC)cc2C(C)C)c(N)n1 |
| Active | COc1cc(C(C)C)c(Oc2cnc(NC(=O)C3CCN(C(C)=O)CC3)nc2NC(=O)C2CCN(C(C)=O)CC2)cc1I |
| Active | COc1cc(C(C)C)c(Oc2cnc(N)nc2NC(=O)C(C)(C)C)cc1I |
| Active | COc1cc(C(C)C)c(Oc2cnc(NC(C)=O)nc2N)cc1I |
| Active | COc1cc(C(C)C)c(Oc2cnc(N)nc2NC(=O)c2ccccn2)cc1I |
| Active | COc1cc(C(C)C)c(Oc2cnc(NC(=O)c3ccccc3)nc2N)cc1I |
| Active | COc1cc(C(C)C)c(Oc2cnc(NC(=O)c3cccnc3)nc2N)cc1I |
| Active | C#Cc1cc(Oc2cnc(N)nc2NC(=O)c2cccn2C)c(C(C)C)cc1OC |
| Active | COCCOCC(=O)Nc1nc(N)ncc1Oc1cc(I)c(OC)cc1C(C)C |
| Active | COc1cc(C(C)C)c(Oc2cnc(N)nc2NC(=O)c2cnc[nH]2)cc1I |
| Active | CCC(C)(C)C(=O)Nc1nc(N)ncc1Oc1cc(I)c(OC)cc1C(C)C |
| Active | COc1cc(C(C)C)c(Oc2cnc(NC(=O)N3CCCCC3)nc2N)cc1I |
| Active | COc1cc(C(C)C)c(Oc2cnc(N)nc2NC(=O)C2CCN(C)CC2)cc1I |
| Active | COc1cc(C(C)C)c(Oc2cnc(NC(=O)CC(C)C)nc2NC(=O)CC(C)C)cc1I |
| Active | COc1cc(C(C)C)c(Oc2cnc(NC(=O)C(C)(C)C)nc2N)cc1I |
| Active | C#Cc1cc(Oc2cnc(N)nc2NC(=O)c2ccccc2)c(C(C)C)cc1OC |
| Active | CC[C@@H](C)[C@@H](N)C(=O)Nc1nc(N)ncc1Oc1cc(I)c(OC)cc1C(C)C |
| Active | COc1cc(C(C)C)c(Oc2cnc(NC(=O)[C@@H]3CCCN3)nc2N)cc1I |
| Active | CCOC(=O)Nc1ncc(Oc2cc(I)c(OC)cc2C(C)C)c(NC(=O)OCC)n1 |

Test system: Rattus norvegicus
Assay: Cmax in Crl:WI(GLx/BRL/Han)IGS BR(Hanover-Wistar) rat assessed as (5-(5-Iodo-2-isopropyl-4-methoxy-phenoxy)-pyrimidine-2,4-diamine) level at 0.127 mmol, po after 0.5 to 24 hrs by HPLC method
Assay type: ADME, organism-based
Set-up: dose 0.127 mmol, route oral
Details: in vivo

| Cmax | SMILES |
| --- | --- |
| 61.9 ng/mL | COc1cc(C(C)C)c(Oc2cnc(NC(=O)C(C)C)nc2N)cc1I |

Test system: Rattus norvegicus
Assay: AUC in Crl:WI(GLx/BRL/Han)IGS BR(Hanover-Wistar) rat assessed as (5-(5-Iodo-2-isopropyl-4-methoxy-phenoxy)-pyrimidine-2,4-diamine) level at 0.127 mmol, po after 0.5 to 24 hrs by HPLC method
Assay type: ADME, organism-based
Set-up: time upper 24 hr, time lower 0.5 hr, dose 0.127 mmol, route oral
Details: in vivo

| AUC | SMILES |
| --- | --- |
| 200 ng·h/mL | COc1cc(C(C)C)c(Oc2cnc(NC(=O)C(C)C)nc2N)cc1I |
